Patent US10155757B2, “Crystalline form of a JAK3 kinase inhibitor” (VECTURA LIMITED, priority 2015, dated 2018)

Test: Aerodynamic particle size distribution (APSD) by Next Generation Impactor (NGI), fine particle mass and its stability
Format: physicochemical
Conditions: 1000 μg dose load in 20 mg formulation, NGI 60 Lmin^−1, F1 device
Procedure: The aerodynamic particle size distribution (APSD) of the formulations was evaluated with the Next Generation Impactor (NGI) tested at a flow rate of 80 Lmin^−1 in the GyroHaler® device (Compound 1—Gentisic Acid) and 60 Lmin^−1 in the F1 device (Compound 1, Compound 1—Maleic Acid and Compound 1—Adipic Acid). One dose was collected for each NGI measurement. Compound 1 deposition on the NGI components was measured by a gradient high performance liquid Chromatography (HPLC) method with UV detection.
The co-crystals with adipic acid and maleic acid were tested in a Vectura unit dose device as disclosed in WO2010/086285, and the gentisic acid co-crystal was tested in a GyroHaler® device.

Fine particle Mass (μg < 5 μm) (T = 0 w): 418.2 µg
Fine particle Mass (μg < 5 μm) (T = 4 w): 450.7 µg
Fine particle Mass (μg < 5 μm) (T = 12 w): 415.3 µg
SMILES: Cn1c(=O)n([C@H]2CCCN(C(=O)CC#N)C2)c2nc(-c3cnn4ccccc34)ccc21 [Compound 1, (S)-3-(3-(1-methyl-2-oxo-5-(pyrazolo[1,5-a]pyridine-3-yl)-1H-imidazo[4,5-b]pyridine-3(2H)-yl)piperidin-1-yl)-3-oxopropanenitrile]
